Results reported in patent publication US6806359B1, “Hormone receptor compositions and methods” (The Salk Institute for Biological Studies, priority 1986, dated 2004).
“Also recorded” adds a separate entry of the source.

Legend:
[1] = target: T1, hMR (Homo sapiens, UniProt P08235); assay: Transcriptional activation of MMTV LTR (GMCAT) by hMR in transfected CV1 cells; assay type: cell-based; set-up: expressed in transfected cells; conditions: pRShMR + GMCAT, charcoal-treated serum, 10 nM steroid
T1 sequence (P08235 1-984): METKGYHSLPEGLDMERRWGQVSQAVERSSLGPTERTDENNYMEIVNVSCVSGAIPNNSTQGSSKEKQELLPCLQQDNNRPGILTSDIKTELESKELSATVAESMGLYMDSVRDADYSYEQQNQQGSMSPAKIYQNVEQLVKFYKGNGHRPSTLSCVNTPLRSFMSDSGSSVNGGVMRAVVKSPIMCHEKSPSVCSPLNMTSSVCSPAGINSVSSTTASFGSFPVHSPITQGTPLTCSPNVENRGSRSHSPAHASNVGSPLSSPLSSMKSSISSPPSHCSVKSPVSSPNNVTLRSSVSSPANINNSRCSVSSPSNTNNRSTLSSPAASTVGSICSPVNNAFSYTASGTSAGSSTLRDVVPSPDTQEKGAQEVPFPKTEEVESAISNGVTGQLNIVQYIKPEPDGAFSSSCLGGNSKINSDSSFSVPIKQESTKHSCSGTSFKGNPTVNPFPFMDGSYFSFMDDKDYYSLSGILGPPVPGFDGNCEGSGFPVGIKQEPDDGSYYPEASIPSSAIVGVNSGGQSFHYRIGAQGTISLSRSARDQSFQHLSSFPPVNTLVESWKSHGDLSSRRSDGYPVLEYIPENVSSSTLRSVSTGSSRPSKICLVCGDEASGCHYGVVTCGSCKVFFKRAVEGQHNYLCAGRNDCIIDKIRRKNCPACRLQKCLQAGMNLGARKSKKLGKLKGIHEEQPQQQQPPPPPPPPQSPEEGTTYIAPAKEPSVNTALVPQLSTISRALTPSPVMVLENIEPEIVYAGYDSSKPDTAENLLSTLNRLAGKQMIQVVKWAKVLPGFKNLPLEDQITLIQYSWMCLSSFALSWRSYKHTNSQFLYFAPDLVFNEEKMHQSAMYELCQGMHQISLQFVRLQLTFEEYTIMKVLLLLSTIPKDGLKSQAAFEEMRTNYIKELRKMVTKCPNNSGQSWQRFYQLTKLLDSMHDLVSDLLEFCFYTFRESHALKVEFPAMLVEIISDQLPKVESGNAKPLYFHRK
Text: Steroid hormone action is characterized by hormone-dependent modulation of target gene transcription. The assay for transcriptional regulation by transfected hGR in CVI cells (see Experimental Section II) was adapted to hMR (FIGS. 42 and 44). The expression plasmid used for steroid-binding assays, pRShMR, was cotransfected with a reporter plasmid called GMCAT, which contains the MMTV LTR linked to the bacterial gene for chloramphenicol acetyltransferase (CAT). Thus CAT activity provides an enzymatic assay for the transcriptional activity of the MMTV promoter. The MMTV promoter contains several glucorticoid response elements (GRE's), enhancer-like DNA sequences that confer glucocorticoid responsiveness via interaction with the GR (21).
FIG. 42 Structure of GMCAT. This plasmid was cotransfected with the steroid receptors as a reporter gene for hormone-dependent transcriptional activation (see Experimental Section II). […] Transfected cells were maintained in DMEM with 5 percent fetal calf serum. Serum was treated with charcoal to eliminate free steroids in subsequent experiments so that the effects of exogenous steroids could be determined. […] (D) AC, 3-acetylchloramphenicol; C, chloramphenicol. Two days after transfection by calcium phosphate coprecipitation (43), extracts were prepared for CAT assay (44). The assays were incubated for 6 hours with 50 micrograms of protein extract.

[2] = target: T2, GR (Homo sapiens, UniProt P04150); conditions: read-out: KD for binding to GR; cited from earlier work
T2 sequence (P04150 1-777): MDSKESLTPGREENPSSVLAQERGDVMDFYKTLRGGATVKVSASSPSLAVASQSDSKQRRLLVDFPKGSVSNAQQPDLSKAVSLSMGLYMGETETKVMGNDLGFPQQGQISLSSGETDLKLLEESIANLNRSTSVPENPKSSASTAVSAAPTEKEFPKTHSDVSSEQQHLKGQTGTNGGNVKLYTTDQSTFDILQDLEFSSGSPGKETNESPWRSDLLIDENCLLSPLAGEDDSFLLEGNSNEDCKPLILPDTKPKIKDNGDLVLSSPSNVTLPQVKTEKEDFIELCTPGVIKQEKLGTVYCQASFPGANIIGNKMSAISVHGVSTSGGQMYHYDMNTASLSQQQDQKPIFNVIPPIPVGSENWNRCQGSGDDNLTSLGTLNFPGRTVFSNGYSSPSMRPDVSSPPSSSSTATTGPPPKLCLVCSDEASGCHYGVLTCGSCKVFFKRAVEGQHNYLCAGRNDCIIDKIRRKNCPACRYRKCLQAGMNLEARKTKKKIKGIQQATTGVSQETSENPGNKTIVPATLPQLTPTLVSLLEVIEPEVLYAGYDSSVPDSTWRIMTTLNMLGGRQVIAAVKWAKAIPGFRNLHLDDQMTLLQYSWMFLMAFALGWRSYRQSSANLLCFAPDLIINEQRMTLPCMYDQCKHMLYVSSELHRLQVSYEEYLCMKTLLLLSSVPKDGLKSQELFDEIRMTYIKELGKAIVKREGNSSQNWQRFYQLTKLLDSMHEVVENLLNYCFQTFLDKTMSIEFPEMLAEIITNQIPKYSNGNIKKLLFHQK

[3] = target: MR; conditions: read-out: reported KD values for aldosterone binding to MR; cited from earlier work
[4] = target: T3, rTR alpha (Rattus norvegicus, UniProt P63059); assay: ^125I-T3 binding to in vitro translated rTR alpha (Scatchard and competition); conditions: excess competitor
T3 construct: made in house; host or cells: rabbit reticulocyte lysate (SP6 transcripts of rbeA12B)
T3 sequence (P63059 1-410 isoform P63059-2): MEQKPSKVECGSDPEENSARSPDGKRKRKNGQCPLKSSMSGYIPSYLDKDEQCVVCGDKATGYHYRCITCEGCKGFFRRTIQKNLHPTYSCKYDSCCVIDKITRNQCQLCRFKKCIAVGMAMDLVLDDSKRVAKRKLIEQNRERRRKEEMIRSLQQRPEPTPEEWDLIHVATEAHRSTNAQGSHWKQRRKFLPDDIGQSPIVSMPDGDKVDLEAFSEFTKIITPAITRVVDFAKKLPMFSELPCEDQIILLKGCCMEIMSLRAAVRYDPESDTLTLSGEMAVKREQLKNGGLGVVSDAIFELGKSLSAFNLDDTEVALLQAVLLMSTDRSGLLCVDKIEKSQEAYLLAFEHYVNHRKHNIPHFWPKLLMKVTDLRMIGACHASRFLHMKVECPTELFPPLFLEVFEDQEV
Text: In vitro translation and thyroid hormone binding of rTR alpha FIG. 69 rTR alpha was transcribed in vitro and translated in a rabbit reticulocyte lysate. […] Lane 1, no added RNA; lane 2, rbeA12, which contains the entire 5′ untranslated region; lane 3, rbeA12B, which contains only 97 bp of 5′ untranslated sequence. […] Samples from rbeA12B programmed lysates were mixed with increasing concentrations of unlabeled thyroid hormone or analogs to compete with labeled hormone. […] In vitro transcription and translation and hormone binding were performed as described (22, 23).
23. For in vitro transcription, the entire EcoRI insert of rbeA12 was cloned into pGEM1 (Promega Biotec). […] For thyroid hormone binding, transcriptions were performed with SP6 polymerase and 5 to 10 micrograms of rbeA12B linearized with SstI. […] Thyroid hormone binding for both the Scatchard and competition analyses were determined in the same manner, except that unlabeled protein was used for the Scatchard analysis. […] Specific hormone binding was determined by adding a 1000-fold excess of unlabeled hormone and assayed by counting radioactivity eluting in the excluded volume from a Sephadex G-25 fine (Pharmacia) 0.9-by 4.0-cm. column.

[5] = target: T2, GR; assay: Transcriptional activation of MMTV LTR (GMCAT) by hGR in transfected CV1 cells; assay type: cell-based; set-up: The expression vector linking the RSV LTR to full length hGR cDNA (pRShGR alpha) was designed to obtain high levels of expression; expressed in transfected cells; host or cells: CV1 monkey kidney cells, cotransfected with GMCAT; conditions: pRShGR alpha + GMCAT, 10 nM steroid
[6] = target: T1, hMR; assay: [^3H]aldosterone binding and steroid competition in extracts of pRShMR-transfected COS cells; set-up: expressed in transfected cells; host or cells: COS cells transfected with pRShMR (DEAE-dextran); conditions: 1-, 10-, or 100-fold molar excess of unlabeled steroid
Experimental: Ligand specificity of the hMR protein was determined by preparing cytosol extracts from COS cells transfected with pRShMR. Two days after transfection, cells were harvested, and hormone binding was measured by a dextran-treated charcoal assay. […] This provided a measure of the relative affinity of each of these steroids for hMR.
Steroid-binding properties of expressed hMR. FIG. 38 Structure of pRShMR, the hMR expression plasmid (41). […] Each point was assayed in triplicate with 100 micrograms of extract protein in a 200-microliter incubation at 0° C. for 2.5 hours. […] The results of two independent trials representative of these competition experiments are shown. Cold competitor was present in 1-, 10-, or 100-fold molar excess. […] Subconfluent COS cells were transfected by the DEAE-dextran method (42) with 10 micrograms of pRShMR per dish. Cells were maintained for 2 days in DMEM (Dulbecco's modification of Eagle's minimum essential medium) with 5 percent charcoal-treated fetal calf serum, then harvested in […] tris-HCl. (pH 7.8), 10 nM NaCl, 1 mM EDTA, 10 mM Na2MoO4, 5 mM dithiothreitol, antipain (5 microgram/ml), leupeptin (5 microgram/ml), and 500 microM phenylmethylsulfonyl fluoride. After centrifugation at 15,000×g for 10 minutes, extracts were adjusted to 100 mM NaCl and 5 percent glycerol before binding. […] After centrifugation at 15,000×g for 2 minutes at 40C, tritium in supernatant was quantified by liquid scintillation spectrophotometry.

[7] = target: T4, alpha-hGR (human glucocorticoid receptor) translated in vitro (Homo sapiens, UniProt P04150); assay: Steroid binding (^3H-triamcinolone acetonide) of hGR translated in vitro in reticulocyte lysate, competition by unlabeled steroids; conditions: 100-fold excess unlabeled competitor (15 microM), 2 h at 0° C.
T4 construct: We describe the use of the SP6 transcription vector system to generate analytical amounts of full-length protein; made in house; host or cells: rabbit reticulocyte lysate (cell-free translation of SP6 transcripts)
T4 sequence (P04150 1-777): T2 sequence (P04150 1-777)
Experimental: Steroid-binding of alpha-hGR translated in vitro. […] Bars represent bound ^3H-triamcinolone acetonide (TA) determined with a 100-fold excess of various steroid competitors; 100% competition was determined using unlabeled TA as competitor. The values represent the mean of triplicate determinations, with error bars showing […].
Binding assays were performed in 100 microliters containing 10 mM Tris-HCl pH 7.4, 100 mM NaCl, 1 mM EDTA, 10 mM sodium molybdate, 10 dithiothreitol, […] ^3H-TA (20 Ci mmol^−1, Amersham) and 10 microliters translation mixture or 100 microgram fresh 1M-9 cytosol. Unlabeled steroid competitor (15 microM) was added as indicated. After 2 h at 0° C., samples were extracted twice for 5 min. each with 5 microliter of 50% dextran-coated charcoal to remove unbound steroid, and counted.

competition for T3 binding to rTR alpha by excess compound [4] | relative affinity for hMR by competition with 5 nM [^3H]aldosterone (in words) ([6]; listed as hydrocortisone) | competition with ^3H-TA binding to in vitro-synthesized alpha-hGR by excess unlabeled steroid [7] | SMILES | hMR-mediated CAT activity response (in words) [1] | Kd [2] [nM] | Kd [3] [nM] | hGR-mediated CAT activity response (in words) [5] | relative affinity for hMR by competition with 5 nM [^3H]aldosterone (in words) [6]
no competition |  |  | C[C@]12CCC(=O)C=C1CC[C@@H]1[C@@H]2[C@@H](O)C[C@]2(C=O)[C@@H](C(=O)CO)CC[C@@H]12 [aldosterone] | became responsive; also recorded: approximately equivalent | 25 to 65 | 0.5 to 3 | did not respond; also recorded: insensitive | 
 | very similar affinities | could be competed with | C[C@]12CCC(=O)C=C1CC[C@@H]1[C@@H]2[C@@H](O)C[C@@]2(C)[C@H]1CC[C@]2(O)C(=O)CO [cortisol] | also observed |  |  |  | compete as effectively as aldosterone itself
